Source: patent publication US6071903A, “2,3,4,5-tetrahydro-1H-[1,4]-benzodiazepine-3-hydroxyamic acids” (American Cyanamid Company, priority 1999, dated 2000)

Key:
Assay type in all cases: biochemical
MMP-1 = molecular target: T1, MMP-1 (Homo sapiens, UniProt P03956); assay: In Vitro Collagenase Assay (MMP-1); conditions: human recombinant fibroblast collagenase
T1 construct: human recombinant fibroblast collagenase (truncated, mw=18,828)
T1 sequence (P03956 100-269 limits assumed): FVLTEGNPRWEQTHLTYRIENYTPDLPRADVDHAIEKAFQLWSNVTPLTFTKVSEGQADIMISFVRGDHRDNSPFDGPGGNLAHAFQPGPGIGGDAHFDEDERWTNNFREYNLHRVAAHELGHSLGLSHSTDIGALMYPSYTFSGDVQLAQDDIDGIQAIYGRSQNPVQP
Description: In Vitro Collagenase Assay
This assay was based on the cleavage of a peptide substrate ((Dnp-Pro-Cha-Gly-Cys(Me)-His-Ala-Lys(NMa)-NH2), available from Peptide International, Inc.) by collagenase releasing the fluorescent NMa group which was quantitated on the fluorometer as disclosed in Bickett et al., "A High Throughput Fluorogenic Substrate for Interstitial Collagenase (MMP-1) and Gelatinase (MMP-9)", Anal. Biochem., 212:58-64, (1993). Dnp quenches the NMa fluorescence in the intact substrate.
The assay was run in HCBC assay buffer (50 mM HEPES, pH 7.0, 5 mM Ca^+2, 0.02% Brij, 0.5% Cysteine), with human recombinant fibroblast collagenase (truncated, mw=18,828. from Wyeth-Ayerst Research, Radnor, Pa.). The substrate was dissolved in methanol and stored frozen in 1 mM aliquots. Collagenase was stored frozen in buffer in 25 μM aliquots. In conducting the assay, the substrate was dissolved in HCBC buffer to a final concentration of 10 μM and collagenase to a final concentration of 5 nM. The compounds being examined were dissolved in methanol, DMSO, or HCBC. The methanol and DMSO were diluted in HCBC to <1.0%. The compounds were added to a 96 well plate containing enzyme and the reaction was started by the addition of substrate.
(§1) The reaction was read (excitation 340 nm, emission 444 nm) for 10 min. and the increase in fluorescence over time was plotted as a linear line. The slope of the line was calculated representing the reaction rate. The linearity of the reaction rate was confirmed (r^2 >0.85). The mean (x±sem) of the control rate was calculated and compared for statistical significance (p<0.05) with drug-treated rates using Dunnett's multiple comparison test.

MMP-9 = MMP-9 (Homo sapiens, UniProt P14780); assay: In Vitro Gelatinase Assay (MMP-9); conditions: human neutrophil gelatinase B
Protocol: The enzyme activity is measured by the rate of the color increase. The thiopeptide substrate was made up fresh as a 20 mM stock in 100% DMSO and the DTNB was dissolved in 100% DMSO as a 100 mM stock and stored in the dark at room temperature. The substrate and the DTNB were diluted together to 1 mM with substrate buffer (50 mM HEPES, pH 7.5, 5 mM CaCl2) before use. […] The assay buffer, enzyme. […] The increase in OD405 was plotted and the slope of the line was calculated. The slope represents the reaction rate.

MMP-13 = MMP-13 (Homo sapiens, UniProt P45452); assay: MMP-13 inhibition (Table 1); conditions: read-out: IC50 (nM) MMP-13
TACE = molecular target: T2, TACE (Homo sapiens, UniProt P78536); assay: Procedure for Measuring TACE Inhibition
T2 construct: purchased Immunex
Protocol: Procedure for Measuring TACE Inhibition
The plates were incubated for 10 minutes at room temperature. The reaction was initiated by addition of a fluorescent peptidyl substrate (final concentration 100 μM) to each well with shaking on a shaker for 5 sec.
as §1, with “420” for “444”, “and this represents” for “representing”, “The linearity of the reaction rate was confirmed (r^2 >0.85).” left out

Chain of MMP-9 (P14780 94-707): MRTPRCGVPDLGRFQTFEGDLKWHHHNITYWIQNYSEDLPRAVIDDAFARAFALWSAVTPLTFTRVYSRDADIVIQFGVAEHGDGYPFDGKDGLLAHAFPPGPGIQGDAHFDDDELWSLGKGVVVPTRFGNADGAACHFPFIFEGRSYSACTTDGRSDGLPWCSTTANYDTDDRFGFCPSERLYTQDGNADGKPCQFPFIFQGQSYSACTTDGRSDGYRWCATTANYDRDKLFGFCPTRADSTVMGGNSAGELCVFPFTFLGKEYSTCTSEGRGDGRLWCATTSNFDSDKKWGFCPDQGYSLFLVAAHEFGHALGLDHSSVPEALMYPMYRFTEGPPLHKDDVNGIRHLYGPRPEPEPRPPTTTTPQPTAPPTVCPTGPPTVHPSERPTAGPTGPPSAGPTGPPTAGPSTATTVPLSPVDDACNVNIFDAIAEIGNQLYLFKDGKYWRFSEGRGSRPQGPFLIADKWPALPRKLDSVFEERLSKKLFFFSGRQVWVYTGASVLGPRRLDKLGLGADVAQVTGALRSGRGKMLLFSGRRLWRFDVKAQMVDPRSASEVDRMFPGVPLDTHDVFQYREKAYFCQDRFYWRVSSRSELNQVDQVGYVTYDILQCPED
T2 sequence (P78536 215-824): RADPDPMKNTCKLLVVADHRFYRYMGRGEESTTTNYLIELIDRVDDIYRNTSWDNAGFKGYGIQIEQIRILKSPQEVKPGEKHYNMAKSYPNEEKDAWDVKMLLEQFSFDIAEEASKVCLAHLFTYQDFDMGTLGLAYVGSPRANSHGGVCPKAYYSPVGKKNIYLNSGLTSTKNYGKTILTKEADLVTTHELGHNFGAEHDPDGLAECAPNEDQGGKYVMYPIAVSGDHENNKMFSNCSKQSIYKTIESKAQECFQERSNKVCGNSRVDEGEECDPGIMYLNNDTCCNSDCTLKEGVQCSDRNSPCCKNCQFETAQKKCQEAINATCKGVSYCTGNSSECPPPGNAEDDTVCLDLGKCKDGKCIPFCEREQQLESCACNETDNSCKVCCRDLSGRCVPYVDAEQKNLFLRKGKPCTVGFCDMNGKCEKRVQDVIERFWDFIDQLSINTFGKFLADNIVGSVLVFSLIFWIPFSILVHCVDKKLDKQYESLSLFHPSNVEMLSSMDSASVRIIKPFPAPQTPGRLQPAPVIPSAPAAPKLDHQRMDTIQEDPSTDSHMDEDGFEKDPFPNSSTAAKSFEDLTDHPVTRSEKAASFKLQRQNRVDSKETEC

| Structure (SMILES) | IC50 (MMP-1) [nM] | IC50 (MMP-9) [nM] | IC50 (MMP-13) [nM] | IC50 (TACE) [nM] |
| --- | --- | --- | --- | --- |
| COc1ccc(S(=O)(=O)N2Cc3ccccc3N(C(=O)c3cccc(C(F)(F)F)c3)CC2C(=O)NO)cc1 (stereo not shown) [Example 1, 4-(4-Methoxybenzenesulfonyl)-1-(3-trifluoromethylbenzoyl)-2,3,4,5-tetrahydro-1H-[1,4]-benzodiazepine-3-carboxylic acid, Hydroxyamide] | 96.2 | 5.1 | 3.7 | 352 |
| COc1ccc(S(=O)(=O)N2Cc3ccccc3N(S(=O)(=O)c3ccc(C)cc3)CC2C(=O)NO)cc1 (stereo not shown) [Example 2, 4-(4-Metboxybenzenesulfonyl)-1-(4-methylphenylsulfonyl)-2,3,4,5-tetrahydro-1H-[1,4]benzodiazepine-3-carboxylic acid, Hydroxyamide] |  | 14.1 | 5.1 | 391 |
| COc1ccc(S(=O)(=O)N2Cc3ccccc3N(S(C)(=O)=O)CC2C(=O)NO)cc1 (stereo not shown) [Example 3, 1-Methanesulfonyl-4-(4-methoxybenzenesulfonyl)-2,3,4,5-tetrahydro-1H-[1,4]benzodiazepine-3-carboxylic acid, Hydroxyamide] | 156 | 7.9 | 3 | 104 ± 8 |
| COc1ccc(S(=O)(=O)N2CC(C(=O)NO)N(S(=O)(=O)c3ccc(OC)cc3)Cc3ccccc32)cc1 (stereo not shown) [Example 4, 1,4-Bis-(4-Methoxybenzenesulfonyl)-2,3,4,5-tetrahydro-1H-[1,4]benzodiazepine-3-carboxylic acid, Hydroxyamide] | 224 | 12.2 | 4.3 | 101 ± 3 |
| COc1ccc(S(=O)(=O)N2Cc3ccccc3N(C(=O)c3ccccc3)CC2C(=O)NO)cc1 (stereo not shown) [Example 5, 1-Benzoyl-4-(4-methoxybenzenesulfonyl)-2,3,4,5-tetrahydro-1H-[1,4]benzodiazepine-3-carboxylic acid, Hydroxyamide] |  | 0.56 | 0.4 | 95 ± 10 |
| COc1ccc(S(=O)(=O)N2Cc3ccccc3N(C(C)=O)CC2C(=O)NO)cc1 (stereo not shown) [Example 6, 1-Acetyl-4-(4-methoxybenzenesulfonyl)-2,3,4,5-tetrahydro-1H-[1,4]benzodiazepine-3-carboxylic acid, Hydroxyamide] | 18.4 | 1.4 | 1 | 103 |
| COc1ccc(S(=O)(=O)N2Cc3ccccc3N(C(=O)c3cccnc3)CC2C(=O)NO)cc1 (stereo not shown) [Example 7, 4-(4-Methoxybenzenesulfonyl)-1-(3-pyridinylcarbonyl)-2,3,4,5-tetrahydro-1H-[1,4]benzodiazepine-3-carboxylic acid, Hydroxyamide] | 20.4 | 0.6 | 0.4 | 77.7 |
| COc1ccc(S(=O)(=O)N2Cc3ccccc3N(C(=O)c3cccs3)CC2C(=O)NO)cc1 (stereo not shown) [Example 8, 4-(4-Methoxybenzenesulfonyl)-1-(2-thienylcarbonyl)-2,3,4,5-tetrahydro-1H-[1,4]benzodiazepine-3-carboxylic acid, Hydroxyamide] | 19.7 |  | 1.1 |  |
| COCC(=O)N1CC(C(=O)NO)N(S(=O)(=O)c2ccc(OC)cc2)Cc2ccccc21 (stereo not shown) [Example 9, 1-Methoxyacetyl-4-(4-methoxybenzenesulfonyl)-2,3,4,5-tetrahydro-1H-[1,4]benzodiazepine-3-carboxylic acid, Hydroxyamide] | 34.1 | 1.34 | 1.19 | 95.2 |
| CCCS(=O)(=O)N1CC(C(=O)NO)N(S(=O)(=O)c2ccc(OC)cc2)Cc2ccccc21 (stereo not shown) [Example 10, 4-(4-Methoxybenzenesulfonyl)-1-(propane-1-sulfonyl)-2,3,4,5-tetrahydro-1H-[1,4]benzodiazepine-3-carboxylic acid, Hydroxyamide] | 183 | 7 | 2.8 | 91 ± 10 |
| COc1ccc(S(=O)(=O)N2Cc3ccccc3N(C(=O)c3cc(F)ccc3C)CC2C(=O)NO)cc1 (stereo not shown) [Example 11, 4-(4-Methoxybenzenesulfonyl)-1-(2-methyl-5-fluorobenzoyl)-2,3,4,5-tetrahydro-1H-[1,4]benzodiazepine-3-carboxylic acid, Hydroxyamide] | 55.4 | 3.9 | 2.3 | 271 |
| COc1ccc(S(=O)(=O)N2Cc3ccccc3N(C(=O)CCc3ccccc3)CC2C(=O)NO)cc1 (stereo not shown) [Example 12, 4-(4-Methoxybenzenesulfonyl)-1-(3-phenylpropionyl)-2,3,4,5-tetrahydro-1H-[1,4]benzodiazepine-3-carboxylic acid, Hydroxyamide] | 523 | 17.9 |  | 207 |
| COc1ccc(S(=O)(=O)N2Cc3ccccc3N(C(=O)c3ccncc3)CC2C(=O)NO)cc1 (stereo not shown) [Example 13, 4-(4-Methoxybenzenesulfonyl)-1-(4-pyridinylcarbonyl)-2,3,4,5-tetrahydro-1H-[1,4]benzodiazepine-3-carboxylic acid, Hydroxyamide] | 54.9 | 9.8 | 2 | 154 |
| COc1ccc(S(=O)(=O)N2Cc3ccccc3N(C(=O)c3ccccc3-c3ccccc3)CC2C(=O)NO)cc1 (stereo not shown) [Example 14, 1-([1,1'-Biphenyl]-2-carbonyl)-4-(4-methoxybenzenesulfonyl)-2,3,4,5-tetrahydro-1H-[1,4]benzodiazepine-3-carboxylic acid, Hydroxyamide] | 542 | 12.6 | 3.7 |  |
| COc1ccc(S(=O)(=O)N2Cc3ccccc3N(C(=O)c3ccc(-c4ccccc4)cc3)CC2C(=O)NO)cc1 (stereo not shown) [Example 15, 1-(4-Biphenylcarbonyl)-4-(4-methoxybenzenesulfonyl)-2,3,4,5-tetrahydro-1H-[1,4]benzodiazepine-3-carboxylic acid, Hydroxyamide] | 52.7 | 0.7 | 0.4 | 199 |
| COc1ccc(S(=O)(=O)N2Cc3ccccc3N(C(=O)c3ccc(Cl)cc3Cl)CC2C(=O)NO)cc1 (stereo not shown) [Example 31, 1-(2,4-Dichlorobenzoyl)-4-(4-methoxybenzenesulfonyl)-2,3,4,5-tetrahydro-1H-[1,4]benzodiazepine-3-carboxylic acid, Hydroxyamide] | 75.5 | 3 | 2.6 |  |
| COc1ccc(S(=O)(=O)N2Cc3ccccc3N(C(=O)c3ccco3)CC2C(=O)NO)cc1 (stereo not shown) [Example 40, 1-(2-Furanylcarbonyl)-4-(4-methoxybenzenesulfonyl)-2,3,4,5-tetrahydro-1H-[1,4]benzodiazepine-3-carboxylic acid, Hydroxyamide] | 16.6 | 1.4 | 1.2 | 28.5 |
| COc1ccc(S(=O)(=O)N2Cc3ccccc3N(C(=O)C3CC3)CC2C(=O)NO)cc1 (stereo not shown) [Example 55, 1-(Cyclopropylcarbonyl)-4-(4-methoxybenzenesulfonyl)-2,3,4,5-tetrahydro-1H-[1,4]benzodiazepine-3-carboxylic acid, Hydroxyamide] | 171 | 4 |  | 68.5 |
| COc1ccc(S(=O)(=O)N2Cc3ccccc3N(C(=O)C3CCCCC3)CC2C(=O)NO)cc1 (stereo not shown) [Example 57, 1-(Cyclohexylcarbonyl)-4-(4-methoxybenzenesufonyl)-2,3,4,5-tetrahydro-1H-[1,4]benzodiazepine-3-carboxylic acid, Hydroxyamide] | 465 | 12.7 |  | 318 |
| COCCN1CC(C(=O)NO)N(S(=O)(=O)c2ccc(OC)cc2)Cc2ccccc21 (stereo not shown) [Example 62, 4-(4-Methoxybenzenesulfonyl)-1-(2-methoxyetbyl)-2,3,4,5-tetrahydro-1H-[1,4]benzodiazepine-3-carboxylic acid, Hydroxyamide] | 1000 | 100 | 100 |  |
